In ChEMBL document CHEMBL5360655, “Design, Synthesis, and Biological Evaluation of Novel P2X7 Receptor Antagonists for the Treatment of Septic Acute Kidney Injury” (J Med Chem, 2023):
Calls of active or inactive are those of the source. The calls are words filed in the database; no cut-off is given here.

Tests used:
Cytochrome P450 3A4 = Cytochrome P450 3A4 (Homo sapiens, UniProt P08684); assay: Inhibition of CYP3A4 in human liver microsomes using midazolam as substrate upto 100 uM incubated for 10 mins in presence of NADPH by LC-MS/MS analysis; format: ADME, Microsome
Sequence of Cytochrome P450 3A4 (P08684 whole entry): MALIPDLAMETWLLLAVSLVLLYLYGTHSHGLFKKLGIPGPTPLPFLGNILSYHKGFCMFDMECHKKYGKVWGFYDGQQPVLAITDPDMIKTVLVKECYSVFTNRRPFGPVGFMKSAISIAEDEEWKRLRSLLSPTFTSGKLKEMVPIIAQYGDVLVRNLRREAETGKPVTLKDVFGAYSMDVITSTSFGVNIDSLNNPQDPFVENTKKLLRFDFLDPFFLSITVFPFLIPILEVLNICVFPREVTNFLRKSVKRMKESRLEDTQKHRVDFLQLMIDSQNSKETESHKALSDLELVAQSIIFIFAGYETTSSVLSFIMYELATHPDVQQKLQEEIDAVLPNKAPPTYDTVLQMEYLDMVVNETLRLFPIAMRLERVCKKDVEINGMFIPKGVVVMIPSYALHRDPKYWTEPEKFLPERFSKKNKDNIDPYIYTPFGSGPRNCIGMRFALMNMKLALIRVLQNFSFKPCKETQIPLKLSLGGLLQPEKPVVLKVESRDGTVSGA

[1] = Half life in BALB/c mouse at 10 mg/kg, po measured for 24 hrs by LC-MS/MS analysis; format: ADME, organism-based; details: in vivo
P2X purinoceptor 7 = biological target: T1, P2X purinoceptor 7 (Mus musculus, UniProt Q9Z1M0); assay: Antagonist activity at mouse P2X7 receptor expressed in HEK293 cells assessed as inhibition of ATP-induced receptor pore formation by propidium iodide dye uptake based fluorescence analysis; format: cell-based
T1 sequence (Q9Z1M0 whole entry): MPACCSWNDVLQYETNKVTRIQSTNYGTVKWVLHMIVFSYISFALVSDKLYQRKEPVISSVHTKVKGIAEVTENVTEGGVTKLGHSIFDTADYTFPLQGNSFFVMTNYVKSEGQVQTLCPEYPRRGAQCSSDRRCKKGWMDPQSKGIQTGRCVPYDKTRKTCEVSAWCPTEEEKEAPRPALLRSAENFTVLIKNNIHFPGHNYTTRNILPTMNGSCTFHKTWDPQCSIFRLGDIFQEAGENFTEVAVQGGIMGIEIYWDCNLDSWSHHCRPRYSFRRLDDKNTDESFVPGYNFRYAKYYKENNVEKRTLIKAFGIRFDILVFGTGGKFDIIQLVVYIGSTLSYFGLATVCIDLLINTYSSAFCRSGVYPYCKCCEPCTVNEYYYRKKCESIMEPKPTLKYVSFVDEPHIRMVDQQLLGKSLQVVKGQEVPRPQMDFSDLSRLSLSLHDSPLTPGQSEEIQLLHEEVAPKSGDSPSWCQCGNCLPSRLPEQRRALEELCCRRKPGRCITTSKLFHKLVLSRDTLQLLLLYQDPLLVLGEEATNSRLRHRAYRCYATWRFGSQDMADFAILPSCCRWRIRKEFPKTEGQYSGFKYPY

[2] = Oral bioavailability in BALB/c mouse at 10 mg/kg measured for 24 hrs by LC-MS/MS analysis; format: ADME, organism-based; details: in vivo
[3] = Toxicity in C57BL/6J mouse assessed as animal's survival rate at 400 mg/kg, ip measured for 14 days; format: organism-based; details: in vivo, time 14 day
[4] = Ratio of MTD in ip dosed C57BL/6J mouse to MED for reno-protective activity against ip dosed LPS-induced acute kidney injury C57BL/6J mouse model; format: ADME, organism-based; details: in vivo
Mus musculus [5] = assay: Reno-protective activity against CLP-induced acute kidney injury C57BL/6J mouse model assessed as decrease in caspase-1 mRNA expression in kidney at 20 mg/kg, ip administered twice at 30 mins prior to CLP operation and 8 hrs post-CLP operation and measured at 16 hrs post-CLP operation by RT-qPCR analysis; format: functional, organism-based; details: time 16.5 hrs
Cytochrome P450 2C9 = Cytochrome P450 2C9 (Homo sapiens, UniProt P11712); assay: Inhibition of CYP2C9 in human liver microsomes using tolbutamide as substrate upto 100 uM incubated for 10 mins in presence of NADPH by LC-MS/MS analysis; format: ADME, Microsome
Sequence of Cytochrome P450 2C9 (P11712 whole entry): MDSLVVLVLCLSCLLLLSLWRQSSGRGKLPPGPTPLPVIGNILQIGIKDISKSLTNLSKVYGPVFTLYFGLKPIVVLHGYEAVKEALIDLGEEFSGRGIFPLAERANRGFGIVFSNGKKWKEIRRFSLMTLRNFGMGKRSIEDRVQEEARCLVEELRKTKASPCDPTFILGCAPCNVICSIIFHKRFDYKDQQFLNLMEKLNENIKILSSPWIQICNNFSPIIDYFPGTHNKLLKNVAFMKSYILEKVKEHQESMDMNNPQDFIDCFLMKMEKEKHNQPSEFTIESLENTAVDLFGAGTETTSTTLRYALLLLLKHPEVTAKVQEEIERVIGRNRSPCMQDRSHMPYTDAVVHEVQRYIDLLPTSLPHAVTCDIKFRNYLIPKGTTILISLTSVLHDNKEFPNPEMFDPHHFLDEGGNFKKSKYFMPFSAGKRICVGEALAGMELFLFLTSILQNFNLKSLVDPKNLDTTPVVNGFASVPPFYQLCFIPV

THP-1 [6] = assay: Inhibition of ATP-induced apoptosis in human THP-1 cells at […] pretreated with compound for 3 hrs in presence of LPS followed by incubation with ATP for 1 hr by PI/Hoechst staining based fluorescence microscopic analysis; format: functional, cell-based; details: dose 2.5 µM, time 4.0 hrs
Mus musculus [7] = assay: Reno-protective activity against CLP-induced acute kidney injury C57BL/6J mouse model assessed as decrease in Tnfa-gene expression in kidney at 20 mg/kg, ip administered twice at 30 mins prior to CLP operation and 8 hrs post-CLP operation and measured at 16 hrs post-CLP operation by RNA sequencing analysis; format: functional, organism-based; details: time 16.5 hrs
Mus musculus [8] = assay: Reno-protective activity against CLP-induced acute kidney injury C57BL/6J mouse model assessed as decrease in IL-1 beta mRNA expression in kidney at 20 mg/kg, ip administered twice at 30 mins prior to CLP operation and 8 hrs post-CLP operation and measured at 16 hrs post-CLP operation by RT-qPCR analysis; format: functional, organism-based; details: time 16.5 hrs
THP-1 [9] = assay: Effect on P2X7 receptor expression in human THP-1 cells at 0.1 to […] pretreated with LPS for 3 hrs followed by incubation with compound for 40 mins followed by treatment with ATP for 1 hr by western blot analysis; format: functional, cell-based; details: dose 0.1-2.5 µM, time 100.0 min
[10] = Toxicity in ip dosed C57BL/6J mouse assessed as maximum tolerated dose and measured for 14 days; format: organism-based; details: in vivo, time 14 day
[11] = Half life in BALB/c mouse at 10 mg/kg, ip measured for 24 hrs by LC-MS/MS analysis; format: ADME, organism-based; details: in vivo
Mus musculus [12] = assay: Reno-protective activity against CLP-induced acute kidney injury C57BL/6J mouse model assessed as decrease in tubular injury at 20 mg/kg, ip administered twice at 30 mins prior to CLP operation and 8 hrs post-CLP operation and measured at 16 hrs post-CLP operation by Hematoxylin-Eosin staining based analysis; format: functional, organism-based; details: time 16.5 hrs
[13] = biological target: T2, P2X purinoceptor 7 (Mus musculus) (UniProt Q9Z1M0); assay: Antagonist activity at mouse P2X7 receptor expressed in HEK293 cells assessed as inhibition of ATP-induced receptor pore formation at 1 uM by propidium iodide dye uptake based fluorescence analysis; format: cell-based; details: filed as antagonist
T2 sequence (whole entry): T1 sequence (Q9Z1M0 whole entry)

Mus musculus [14] = assay: Reno-protective activity against CLP-induced acute kidney injury C57BL/6J mouse model assessed as decrease in NLRP3 protein expression in kidney at 20 mg/kg, ip administered twice at 30 mins prior to CLP operation and 8 hrs post-CLP operation and measured at 16 hrs post-CLP operation by western blot analysis; format: functional, organism-based; details: time 16.5 hrs
[15] = Intrinsic clearance in human liver microsomes; format: ADME, Microsome; details: read-out: CLH
[16] = Toxicity in C57BL/6J mouse assessed as pathological changes in heart at 20 mg/kg, ip administered twice at 0 hrs and 8 hrs and measured after 16 hrs by Hematoxylin-Eosin staining based analysis; format: organism-based; details: in vivo
[17] = Clearance in BALB/c mouse at 10 mg/kg, iv measured for 24 hrs by LC-MS/MS analysis; format: ADME, organism-based; details: in vivo
[18] = Toxicity in C57BL/6J mouse assessed as pathological changes in lungs at 20 mg/kg, ip administered twice at 0 hrs and 8 hrs and measured after 16 hrs by Hematoxylin-Eosin staining based analysis; format: organism-based; details: in vivo
THP-1 [19] = assay: Inhibition of ATP-induced mitochondrial damage in human THP-1 cells at […] pretreated with compound for 3 hrs in presence of LPS followed by incubation with ATP for 1 hr by MitoTracker dye based fluorescence analysis; format: functional, cell-based; details: dose 2.5 µM, time 4.0 hrs
[20] = biological target: T2, P2X purinoceptor 7 (Mus musculus); assay: Antagonist activity at mouse P2X7 receptor expressed in HEK293 cells assessed as inhibition of ATP-induced receptor pore formation at 200 nM by propidium iodide dye uptake based fluorescence analysis; format: cell-based; details: filed as antagonist
[21] = Tmax in BALB/c mouse at 10 mg/kg, ip measured for 24 hrs by LC-MS/MS analysis; format: ADME, organism-based; details: in vivo
[22] = Cmax in BALB/c mouse at 10 mg/kg, po measured for 24 hrs by LC-MS/MS analysis; format: ADME, organism-based; design: time 24 hrs, dose 10 mg/kg, route po; details: in vivo
[23] = Half life in BALB/c mouse at 10 mg/kg, iv measured for 24 hrs by LC-MS/MS analysis; format: ADME, organism-based; details: in vivo

In the case of CS(=O)(=O)c1ccc(-c2nc(C(=O)NCc3cn(-c4cc(Br)ccn4)nn3)cs2)cc1, the “inhibition (INH)” value (Cytochrome P450 3A4) is reported as “Not Active”, the half-life [1] is reported as 1.92 h and the IC50 (P2X purinoceptor 7) is reported as 10.1 nM. For the same compound, the bioavailability [2] was 39.2%, the survival at 336 h [3] was 100% and the selectivity ratio [4] was 80. The Activity (Mus musculus [5]) was “Active”, the “inhibition (INH)” value (Cytochrome P450 2C9) was “Not Active” and the inhibition (THP-1 [6]) was “Active”. The Activity (Mus musculus [7]) was “Active”, the Activity (Mus musculus [8]) was “Active” and the Activity (THP-1 [9]) was “inactive”. The MTD at 336 h [10] was 400 mg/kg, the half-life [11] was 6.12 h and the Activity (Mus musculus [12]) was “Active”. For the same compound, the inhibition [13] was 107%, the Activity (Mus musculus [14]) was “Active” and the CLint scaled [15] was 16.6 mL/min/kg. For the same compound, the Activity [16] was “Non-Toxic”, the clearance [17] was 9.83 mL/min/kg and the Activity [18] was “Non-Toxic”. For the same compound, the inhibition (THP-1 [19]) was “Active”, the inhibition [20] was 101% and the Tmax [21] was 3 h. The Cmax [22] was 1300 ng/mL and the half-life [23] was 5.31 h.
